Laboratory results published in publication PMC8053108, “RPA2 winged-helix domain facilitates UNG-mediated removal of uracil from ssDNA; implications for repair of mutagenic uracil at the replication fork” (Nucleic Acids Research, 2021).

Tested on: UNG2 or N-terminally truncated versions
Assay: Uracil excision in presence of increasing amounts of purified free WH domain
Assay type: biochemical, human
Details: 0.4 nM enzyme, 0-50 μM purified WH domain, 100 nM DNA
Experimental: 3′-FAM-labelled, PAGE-purified oligonucleotide substrates were from Sigma-Aldrich. Unless otherwise indicated, the substrate (25 nt) harboured uracil at position 10 in a polyC sequence to avoid secondary structures (U10-25*: […]-FAM). Double-stranded substrate was generated by annealing (heating followed by slow cooling) U10-25* to a non-labelled complementary oligo (A16-25: […]). All assays were performed at 22°C in 10 mM Tris–HCl pH 7.5, 50 mM NaCl, 1 mM DTT, 0.1 mM EDTA, 0.5 mg/ml BSA.
Varying amounts of UNG were then added, and the mixtures incubated for 10 min in a water bath. To avoid unspecific interactions and binding of enzyme and DNA to the assay tube surface, low-DNA binding tubes and excess of BSA was used in all reactions. Reactions were quenched and AP sites cleaved in 10% piperidine at 90°C for 20 min. Samples were dried by vacuum centrifugation and suspended in formamide-containing loading buffer. Product and substrate were separated in 12% PAGE/7M urea–0.5× TBE gels, bands visualised in ChemiDoc™ Imager (Bio-Rad) and quantified by Image Lab software (Bio-Rad). Importantly, all assays in which two parameters were compared (e.g. RPA-coated versus naked substrate or WT versus mutated protein) were performed in parallel with the exact same DNA/protein dilutions.

WH domain: purified RPA2-WH domain, RPA2 residues 172-270
effect on uracil excision from naked ss- and dsDNA substrates: little effect
effect on uracil excision from RPA-bound ss- and dsDNA substrates (RPA-bound): markedly reduced
